Values quoted from earlier work in PubChem BioAssay AID1259409 (Chemical Carcinogenesis Research Information System (CCRIS), 2018).

Tested on: rodent chemically induced tumor inhibition, incidence and multiplicity
Assay: CCRIS tumor inhibitor studies
Settings: Carcinogen: 7,12-DIMETHYLBENZ[A]ANTHRACENE, 57-97-6, Route [Inhibitor]: ORAL, Promoter: NONE USED

O=[Se](O)O
tumour outcome (control, treated, inhibition, significance) (Dose [Inhibitor]: 0, 0.5 UG/G IN DIET BEGINNING 2 WK PRIOR TO CARCINOGEN DOSE AND CONTINUING FOR 2 WK POST CARCINOGEN DOSE FOLLOWED BY BAS, Species: RAT, Strain/Sex: SPRAGUE-DAWLEY/FEMALE, Target Tissue: Type of Lesion: MAMMARY GLAND: TUMOR, Dose [Carcinogen]: 5 MG/KG): 52%, 32%, 38%, not calculated | tumour outcome (control, treated, inhibition, significance) (Dose [Inhibitor]: 0, 1 UG/G IN DIET BEGINNING 2 WK PRIOR TO CARCINOGEN DOSE AND CONTINUING FOR 2 WK POST CARCINOGEN DOSE FOLLOWED BY BASAL, Species: RAT, Strain/Sex: SPRAGUE-DAWLEY/FEMALE, Target Tissue: Type of Lesion: MAMMARY GLAND: TUMOR, Dose [Carcinogen]: 5 MG/KG): 52%, 24%, 54%, not calculated | tumour outcome (control, treated, inhibition, significance) (Dose [Inhibitor]: 0, 2 PPM (AS SELENIUM) IN DIET BEGINNING 2 WK PRIOR TO CARCINOGEN DOSE AND CONTINUING FOR DURATION OF STUDY (STUDY DURAT, Species: RAT, Strain/Sex: SPRAGUE-DAWLEY/FEMALE, Target Tissue: Type of Lesion: MAMMARY GLAND: ADENOCARCINOMA, Dose [Carcinogen]: 10 MG ONCE AT 55 D OF AGE): 88%, 72%, 18%, not significant | tumour outcome (control, treated, inhibition, significance) (Dose [Inhibitor]: 0, 2 UG/G IN DIET BEGINNING 2 WK PRIOR TO CARCINOGEN DOSE AND CONTINUING FOR 2 WK POST CARCINOGEN DOSE FOLLOWED BY BASAL, Species: RAT, Strain/Sex: SPRAGUE-DAWLEY/FEMALE, Target Tissue: Type of Lesion: MAMMARY GLAND: TUMOR, Dose [Carcinogen]: 5 MG/KG): 52%, 14%, 73%, not calculated | tumour outcome (control, treated, inhibition, significance) (Dose [Inhibitor]: 0, 2.5 MG/KG IN DIET TO ANIMALS ON VITAMIN E ADEQUATE DIETS (50 MG/KG) (STUDY DURATION: 20 WK), Species: RAT, Strain/Sex: SPRAGUE-DAWLEY/FEMALE, Target Tissue: Type of Lesion: MAMMARY GLAND: TUMOR, Dose [Carcinogen]: 5 MG ONCE AT 50 D OF AGE): 19/25 (76%), 10/25 (40%), 47%, not calculated | tumour outcome (control, treated, inhibition, significance) (Dose [Inhibitor]: 0, 2.5 MG/KG IN DIET TO ANIMALS ON VITAMIN E DEFICIENT DIETS (10 MG/KG) (STUDY DURATION: 20 WK), Species: RAT, Strain/Sex: SPRAGUE-DAWLEY/FEMALE, Target Tissue: Type of Lesion: MAMMARY GLAND: TUMOR, Dose [Carcinogen]: 5 MG ONCE AT 50 D AGE): 21/25 (84%), 17/25 (68%), 19%, not calculated | tumour outcome (control, treated, inhibition, significance) (Dose [Inhibitor]: 0, 3 PPM (AS SELENIUM) IN DIET BEGINNING 2 WK PRIOR TO CARCINOGEN DOSE AND CONTINUING FOR DURATION OF STUDY (STUDY DURAT, Species: RAT, Strain/Sex: SPRAGUE-DAWLEY/FEMALE, Target Tissue: Type of Lesion: MAMMARY GLAND: ADENOCARCINOMA, Dose [Carcinogen]: 10 MG ONCE AT 55 D OF AGE): 88%, 52%, 41%, p<0.05 | tumour outcome (control, treated, inhibition, significance) (Dose [Inhibitor]: 0, 3 UG/ML IN DRINKING WATER FROM 40-90 D OF AGE THEN 0, 2 UG/ML FROM 90-180 D OF AGE AND 0, 1 UG/ML FROM 180-240 D OF A, Dose [Inhibitor]: 0, 3 UG/ML IN DRINKING WATER FROM 40-90 D OF AGE THEN 0, 2 UG/ML FROM 90-180 D OF AGE AND 0, 1 UG/ML FROM 180-240 D OF A, Species: RAT, Strain/Sex: SPRAGUE DAWLEY/FEMALE, Target Tissue: Type of Lesion: MAMMARY GLAND: ADENOCARCINOMA, FIBROADENOMA, Dose [Carcinogen]: 5 MG IN 0.2 ML SESAME OIL 1/2 D FOR 12 D BEGINNING AT 50 D OF AGE): 100%, 52%, 48%, p<0.001 | tumour outcome (control, treated, inhibition, significance) (Dose [Inhibitor]: 0, 4 PPM IN DRINKING WATER BEGINNING 2 WK PRIOR TO CARCINOGEN DOSE AND CONTINUING FOR 1 WK POST CARCINOGEN DOSE (STUDY D, Species: RAT, Strain/Sex: SPRAGUE-DAWLEY/FEMALE, Target Tissue: Type of Lesion: MAMMARY GLAND: TUMOR, Dose [Carcinogen]: 10 MG IN 1 ML OLIVE OIL ONCE AT 7 WK OF AGE): 19/21 (91%), 19/21 (91%), 0% | tumour outcome (control, treated, inhibition, significance) (Dose [Inhibitor]: 0, 4 UG/G IN DIET BEGINNING 2 WK PRIOR TO CARCINOGEN DOSE AND CONTINUING FOR 2 WK POST CARCINOGEN DOSE FOLLOWED BY BASAL, Species: RAT, Strain/Sex: SPRAGUE-DAWLEY/FEMALE, Target Tissue: Type of Lesion: MAMMARY GLAND: TUMOR, Dose [Carcinogen]: 5 MG/KG): 52%, 10%, 81%, not calculated | tumour outcome (control, treated, inhibition, significance) (Dose [Inhibitor]: 0, 4 UG/G IN DIET BEGINNING 2 WK PRIOR TO CARCINOGEN DOSE AND CONTINUING FOR DURATION OF STUDY (STUDY DURATION: 43 WK), Species: RAT, Strain/Sex: SPRAGUE-DAWLEY/FEMALE, Target Tissue: Type of Lesion: MAMMARY GLAND: TUMOR, Dose [Carcinogen]: 5 MG/KG): 52%, 5%, 90%, not calculated | tumour outcome (control, treated, inhibition, significance) (Dose [Inhibitor]: 0.2, 2 PPM IN DIET BEGINNING 3 D PRIOR TO CARCINOGEN DOSE AND CONTINUING FOR 8 MO (STUDY DURATION: 8 MO), Species: MOUSE, Strain/Sex: BALB/FEMALE, Target Tissue: Type of Lesion: MAMMARY GLAND: ADENOCARCINOMA, Dose [Carcinogen]: 1 MG/WK FOR 6 WK): 12/31 (39%), 4/34 (12%), 69%, p<0.025 | tumour outcome (control, treated, inhibition, significance) (Dose [Inhibitor]: 0.5 PPM IN 5% CORN OIL DIET DAILY STARTING 29 D BEFORE CARCINOGEN TREATMENT AND CONTINUING FOR DURATION OF STUDY (STUDY, Species: RAT, Strain/Sex: SPRAGUE-DAWLEY/FEMALE, Target Tissue: Type of Lesion: MAMMARY GLAND: ADENOCARCINOMA, Dose [Carcinogen]: 5 MG IN CORN OIL ONCE AT 50 D OF AGE): 12/30 (40%), 11/30 (37%), 8%, not significant | tumour outcome (control, treated, inhibition, significance) (Dose [Inhibitor]: 0.5 PPM IN 25% CORN OIL DIET DAILY STARTING 29 D BEFORE CARCINOGEN TREATMENT AND CONTINUING FOR DURATION OF STUDY (STUDY, Species: RAT, Strain/Sex: SPRAGUE-DAWLEY/FEMALE, Target Tissue: Type of Lesion: MAMMARY GLAND: ADENOCARCINOMA, Dose [Carcinogen]: 5 MG IN CORN OIL ONCE AT 50 D OF AGE): 21/30 (70%), 20/29 (69%), 1%, not significant | tumour outcome (control, treated, inhibition, significance) (Dose [Inhibitor]: 0.5 PPM IN DIET DAILY STARTING 1 WK PRIOR TO CARCINOGEN TREATMENT AND CONTINUING FOR DURATION OF STUDY (STUDY DURATION:, Species: MOUSE, Strain/Sex: BD2F1/FEMALE, Target Tissue: Type of Lesion: MAMMARY GLAND: TUMOR, Dose [Carcinogen]: 1 MG IN 0.2 ML COTTONSEED OIL 1/WK FOR 6 WK STARTING AT 8 WK OF AGE): 18/32 (56%), 10/33 (30%), 46%, not calculated
